Laboratory results reported in ChEMBL document CHEMBL1201862, “PubChem BioAssay data set” (2004).
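Following 48 hours of exposure in 96-well plates, responses at five concentrations were used to interpolate endpoints linearly. Here, GI50 denotes the concentration required for 50% inhibition of growth.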 Active and inactive are the calls of the source. No stated cut-off is given here; in the data, active = GI50 up to about 1.1 µM and inactive = higher.

Legend:
Assay in all cases: NCI anticancer screen, dose series, 48 h
[1] = system: SR
[2] = system: SNB-75
[3] = system: U-251
[4] = system: SK-MEL-5
[5] = system: SNB-19
[6] = system: M14
[7] = system: PC-3
[8] = system: CCRF-CEM
[9] = system: DU-145
[10] = system: NCI-H522
[11] = system: ACHN
[12] = system: COLO 205
[13] = system: MDA-MB-231
[14] = system: SN12C
[15] = system: MDA-MB-435
[16] = system: LOX IMVI
[17] = system: SK-MEL-2
[18] = system: K562
[19] = system: HOP-92
[20] = system: NCI-H460

Structure (SMILES) | GI50 [1] | GI50 [2] | GI50 [3] | GI50 [4] | GI50 [5] | GI50 [6] | GI50 [7] | GI50 [8] | GI50 [9] | GI50 [10] | GI50 [11] | GI50 [12] | GI50 [13] | GI50 [14] | GI50 [15] | GI50 [16] | GI50 [17] | GI50 [18] | GI50 [19] | GI50 [20]
C/C(=N\NC(=S)NC(C)(C)C)c1ccccn1 | < 0.01 µM (active) | 11.7 µM (inactive) | 0.0252 µM (active) | 0.153 µM (active) | 4.5 µM (inactive) | < 0.0314 µM (active) | < 0.01 µM (active) | < 0.01 µM (active) | 1.69 µM (inactive) | 0.191 µM (active) | < 0.01 µM (active) | < 0.01 µM (active) | < 0.0378 µM (active) | 0.295 µM (active) | 1.52 µM (inactive) | < 0.01 µM (active) | 0.408 µM (active) | < 0.01 µM (active) | 0.342 µM (active) | –
CCOC(=O)Nc1ccc(S(=O)(=O)Nn2cnnc2)cc1 | 23.9 µM (inactive) | – | 44.3 µM (inactive) | 23.9 µM (inactive) | > 100 µM (inactive) | 43 µM (inactive) | 57.4 µM (inactive) | 23.9 µM (inactive) | > 100 µM (inactive) | 48.1 µM (inactive) | 81.3 µM (inactive) | 39.9 µM (inactive) | 76.6 µM (inactive) | 53.1 µM (inactive) | 16.4 µM (inactive) | 69.3 µM (inactive) | 72.6 µM (inactive) | 27.2 µM (inactive) | 63.7 µM (inactive) | 50 µM (inactive)
Oc1c(/N=N/c2ccccc2)c2ccccc2c2ccc3ccccc3c12 | 17.9 µM (inactive) | 64.1 µM (inactive) | 39.6 µM (inactive) | > 100 µM (inactive) | > 100 µM (inactive) | 57.5 µM (inactive) | 73.8 µM (inactive) | 43.9 µM (inactive) | > 100 µM (inactive) | > 100 µM (inactive) | 55.3 µM (inactive) | > 100 µM (inactive) | 78.3 µM (inactive) | > 100 µM (inactive) | > 100 µM (inactive) | – | > 100 µM (inactive) | 35.3 µM (inactive) | 38.2 µM (inactive) | > 100 µM (inactive)
COC(=O)/C=C/c1cc2c(cc1-c1c(C(=O)O)cc(OC)c(OC)c1OC)OCO2 | > 10 µM (inactive) | > 10 µM (inactive) | > 10 µM (inactive) | > 10 µM (inactive) | > 10 µM (inactive) | > 10 µM (inactive) | > 10 µM (inactive) | > 10 µM (inactive) | > 10 µM (inactive) | > 10 µM (inactive) | > 10 µM (inactive) | > 10 µM (inactive) | > 10 µM (inactive) | > 10 µM (inactive) | > 10 µM (inactive) | > 10 µM (inactive) | – | > 10 µM (inactive) | > 10 µM (inactive) | –
CSC1=N/C(=C\c2ccc(C)cc2)C(=O)N1CN1CCOCC1 | 69.3 µM (inactive) | 46.3 µM (inactive) | 40.8 µM (inactive) | 55.8 µM (inactive) | 37.5 µM (inactive) | 95.1 µM (inactive) | 58.9 µM (inactive) | 41.4 µM (inactive) | 76 µM (inactive) | 97.5 µM (inactive) | 35.4 µM (inactive) | 42.7 µM (inactive) | > 100 µM (inactive) | > 100 µM (inactive) | 99.8 µM (inactive) | 39.9 µM (inactive) | > 100 µM (inactive) | 34.3 µM (inactive) | > 100 µM (inactive) | –
CC(=O)NC1C(OCc2ccccc2)OC(CO)C(O)C1OC(C)C(=O)NC(C(=O)NC(CCC(=O)Nc1ccc2c(c1)CN1C(=O)c3ccccc3C1=N2)C(N)=O)C(C)C (stereo not drawn) | > 100 µM (inactive) | > 100 µM (inactive) | > 100 µM (inactive) | > 100 µM (inactive) | > 100 µM (inactive) | > 100 µM (inactive) | > 100 µM (inactive) | > 100 µM (inactive) | > 100 µM (inactive) | – | > 100 µM (inactive) | > 100 µM (inactive) | > 100 µM (inactive) | > 100 µM (inactive) | > 100 µM (inactive) | > 100 µM (inactive) | > 100 µM (inactive) | > 100 µM (inactive) | > 100 µM (inactive) | > 100 µM (inactive)
